The subject of assay [1] is PC-3. In words: Cytotoxicity against human PC-3 cells assessed as cell viability inhibition for 48 hrs by MTT assay. The format is functional, cell-based. Particulars: PC-3, 48 h.
In assay [2] the test system is MCF7. In words: Cytotoxicity against human MCF-7 cells assessed as cell viability inhibition for 48 hrs by MTT assay. The format is functional, cell-based. The conditions noted are these: MCF7, 48 h. A general note: Tetrazolium dyes change colour on reduction, which living cells bring about.
The subject of assay [3] is A549. In words: Cytotoxicity against human A549 cells assessed as cell viability inhibition for 48 hrs by MTT assay. The format is functional, cell-based. Particulars: A549, 48 h.
The test system of assay [4] is NCI-H1299. In words: Cytotoxicity against human […] cells assessed as cell viability inhibition for 48 hrs by MTT assay. Particulars: NCI-H1299, 48 h. The format is functional, cell-based.
For assay [5], the system named is PC-3. In words: Induction of apoptosis in human PC-3 cells assessed as necrotic cells at 2 uM incubated for 24 hrs by annexin V/propidium iodide based flow cytometry (reference value: 1.93%). The format is functional. (In general: A flow cytometer gives signals particle by particle.)
Assay [6] concerns PC-3. In words: Induction of apoptosis in human PC-3 cells assessed as mitochondrial membrane potential loss at 2 uM incubated for 24 hrs by JC1 staining based flow cytometric analysis (reference value: 100%). The format is functional, cell-based.
In assay [7] the test system is PC-3. In words: Induction of apoptosis in human PC-3 cells assessed as necrotic cells at 4 uM incubated for 24 hrs by annexin V/propidium iodide based flow cytometry (reference value: 1.93%). The format is functional.
For assay [8], the system named is PC-3. In words: Induction of apoptosis in human PC-3 cells assessed as late apoptotic cells at 4 uM incubated for 24 hrs by annexin V/propidium iodide based flow cytometry (reference value: 3.89%). The format is functional.
For assay [9], the system named is PC-3. In words: Induction of apoptosis in human PC-3 cells assessed as early apoptotic cells at 4 uM incubated for 24 hrs by annexin V/propidium iodide based flow cytometry (reference value: 2.71%). The format is functional.
The subject of assay [10] is PC-3. In words: Induction of apoptosis in human PC-3 cells assessed as mitochondrial membrane potential loss at 6 uM incubated for 24 hrs by JC1 staining based flow cytometric analysis (reference value: 100%). The format is functional, cell-based.
Assay [11] relates to PC-3. In words: Induction of apoptosis in human PC-3 cells assessed as mitochondrial membrane potential loss at 4 uM incubated for 24 hrs by JC1 staining based flow cytometric analysis (reference value: 100%). The format is functional, cell-based.
In assay [12] the test system is PC-3. In words: Induction of apoptosis in human PC-3 cells assessed as late apoptotic cells at 2 uM incubated for 24 hrs by annexin V/propidium iodide based flow cytometry (reference value: 3.89%). The format is functional.
Assay [13] deals with PC-3. In words: Induction of apoptosis in human PC-3 cells assessed as necrotic cells at 6 uM incubated for 24 hrs by annexin V/propidium iodide based flow cytometry (reference value: 1.93%). The format is functional.
Assay [14] relates to PC-3. In words: Induction of apoptosis in human PC-3 cells assessed as late apoptotic cells at 6 uM incubated for 24 hrs by annexin V/propidium iodide based flow cytometry (reference value: 3.89%). The format is functional.
Assay [15] relates to PC-3. In words: Induction of apoptosis in human PC-3 cells assessed as increase in cleaved caspase-9 level at 2 to 6 uM incubated for 24 hrs by Western blot analysis. The conditions noted are these: dose 2-6 µM. The format is functional, cell-based. On the technique in general: Immunoblotting shows a protein as a band on a membrane.
For assay [16], the system named is PC-3. In words: Induction of apoptosis in human PC-3 cells assessed as early apoptotic cells at 2 uM incubated for 24 hrs by annexin V/propidium iodide based flow cytometry (reference value: 2.71%). The format is functional.
In assay [17] the test system is PC-3. In words: Induction of apoptosis in human PC-3 cells assessed as increase in Bax protein level incubated for 24 hrs by Western blot analysis. The format is functional, cell-based. The conditions noted are these: dose 2-6 µM.
The subject of assay [18] is PC-3. In words: Induction of apoptosis in human PC-3 cells assessed as early apoptotic cells at 6 uM incubated for 24 hrs by annexin V/propidium iodide based flow cytometry (reference value: 2.71%). The format is functional.
Assay [19] deals with PC-3. In words: Induction of apoptosis in human PC-3 cells assessed as nuclear shrinkage at 2 uM incubated for 24 hrs by DAPI staining analysis. The format is functional, cell-based.
Assay [20] has as its system PC-3. In words: Induction of apoptosis in human PC-3 cells assessed as increase in cleaved PARP level at 2 to 6 uM incubated for 24 hrs by Western blot analysis. The format is functional, cell-based. The conditions noted are these: dose 2-6 µM.
The subject of assay [21] is PC-3. In words: Induction of apoptosis in human PC-3 cells assessed as granular apoptotic body formation at 2 uM incubated for 24 hrs by DAPI staining analysis. The format is functional, cell-based.

Where a name gives a salt, the structure may show the parent alone. Calls of active or inactive are those of the source. The calls are words filed in the database; no cut-off is given here. Where only a bound is given, the exact number is not on record here.

By IC50 is commonly meant the concentration that inhibits the measured activity by half. On to `CC1=CC2c3c(CCc4ccccc4)cc(O)cc3OC(c3c(O)cc(O)cc3CCc3ccccc3)C2C(C)(C)C1` (racemic), for which the IC50 in [1] was found to be 8.2 µM; in [2] it was 9.8 µM.
With `CC1(C)Oc2cc(O)cc(CCc3ccccc3)c2C2=C1O[C@H]1c3c(CCc4ccccc4)cc(O)cc3OC(C)(C)[C@@H]21`, the IC50 in [1], in assay [2], in [3] and in assay [4] was greater than 10 µM each time.
On to `CC1(C)Oc2cc(O)cc(CCc3ccccc3)c2C2=C1O[C@@H]1c3c(CCc4ccccc4)cc(O)cc3OC(C)(C)[C@H]21`, for which the IC50 in assay [1] came to 3.2 µM; in assay [2], 4.5 µM; in assay [3], 3.6 µM; in [4], 6.2 µM.
For the compound `COc1cccc2c1C(=O)c1c(O)c3c(c(O)c1C2=O)C[C@@](O)(C(=O)CO)C[C@@H]3O[C@H]1C[C@H](N)[C@H](O)[C@H](C)O1` [DOXORUBICIN HYDROCHLORIDE], the IC50 came to 0.4 µM in assay [1], 1.2 µM in assay [3] and 4.7 µM in assay [4].
Take `CC1(C)C=Cc2c(CCc3ccccc3)cc(O)c(C3CC(C)(C)Oc4cc(O)cc(CCc5ccccc5)c43)c2O1` (racemic): the half-inhibitory concentration (IC50) in [1] was found to be 8.2 µM; in [2] it was 5.7 µM; in assay [3] it was 6.5 µM; in [4], 8.2 µM.
Take `CC12CC(c3c(CCc4ccccc4)cc(O)cc3O1)C1C(C2)c2c(CCc3ccccc3)cc(O)cc2OC1(C)C` (racemic): the concentration for half-maximal inhibition (IC50) in assay [1] came to 5.4 µM; in [2] it was 4.6 µM; in [3], 5.8 µM; in assay [4], 7.2 µM.
As to `CC1(C)Oc2cc(O)cc(CCc3ccccc3)c2C2OC3c4c(CCc5ccccc5)cc(O)cc4OC(C)(C)C3C21` (racemic), the IC50 came out at 3.5 µM in [1], 5.8 µM in [2], 3.1 µM in assay [3] and 6.7 µM in assay [4].
For the compound `CC1(C)Oc2cc(O)cc(CCc3ccccc3)c2C2=C1OC1c3c(CCc4ccccc4)cc(O)cc3OC(C)(C)C21` (racemic), the IC50 in [1] is 3.4 µM; in assay [2], 5 µM; in assay [3], 3.7 µM; in assay [4] it was 6.6 µM. The Activity in [5] was 4.12%; in assay [7], 2.55%; in assay [8] it was 7.81%; in assay [9] it was 1.4%; in assay [12] it was 5.68%; in assay [13], 18.81%. Besides, the Activity in [14] is 60.74%; in assay [16] it was 2.65%; in assay [18], 1.82%. In addition, the outcome in [6], in assay [10], in assay [11], in [15], in assay [17] and in assay [19] was Active. The result in assay [20] and in assay [21] was Active.
`CC1(C)Oc2cc(O)cc(CCc3ccccc3)c2C(C2=Cc3c(CCc4ccccc4)cc(O)cc3OC2(C)C)C1=O` (racemic): the half-maximal inhibitory concentration (IC50) worked out at 4.1 µM in [1], 4.9 µM in assay [2], 4.5 µM in assay [3] and 6.4 µM in [4].
`CC(C)=CCc1c(O)cc2c(c1CCc1ccccc1)C1(C(=O)O2)c2c(CCc3ccccc3)cc(O)cc2OC1(C)C` (racemic): the IC50 was 1.5 µM in assay [1], 3.6 µM in assay [2], 2.8 µM in assay [3] and 6.9 µM in [4].
Consider `CC1(C)C=Cc2c(cc3c(c2CCc2ccccc2)C2(C(=O)O3)c3c(CCc4ccccc4)cc(O)cc3OC2(C)C)O1` (racemic), for which the IC50 in assay [1] is 1.4 µM; in [2], 5.4 µM; in assay [3], 2.6 µM; in assay [4], 5.8 µM.

(Values after ChEMBL document CHEMBL4834432, “Diverse Prenylated Bibenzyl Enantiomers from the Chinese Liverwort Radula apiculata and Their Cytotoxic Activities” (J Nat Prod, 2021).)
